# Reference: patent publication US9643964B2, “3-(2-aminopyrimidin-4-yl)-5-(3-hydroxypropynyl)-1H-pyrrolo[2,3-C]pyridine derivatives as NIK inhibitors for the treatment of cancer” (Janssen Pharmaceutica NV, priority 2013, dated 2017)
# Columns and labels:
# [1] = biological target: Recombinant Human NF-kappaB-Inducing Kinase (NIK/MAP3K14) (Homo sapiens, UniProt Q99558); experiment: Biological Assay A2: inhibition of auto-phosphorylation of recombinant human NIK/MAP3K14 (AlphaScreen); type: biochemical; conditions: auto-phosphorylation; averaged over all measurements on all batches; read-out: αscreen IC50
# Procedure: Inhibition of Auto-Phosphorylation of Recombinant Human NF-kappaB-Inducing Kinase (NIK/MAP3K14) Activity (AlphaScreen®)
# NIK/MAP3K14 auto-phosphorylation activity was measured using the AlphaScreen® (αscreen) format (Perkin Elmer). All compounds tested were dissolved in dimethyl sulfoxide (DMSO) and further dilutions were made in assay buffer. Final DMSO concentration was 1% (v/v) in assays. Assay buffer was 50 mM Tris pH 7.5 containing 1 mM EGTA (ethylene glycol tetraacetic acid), 1 mM DTT (dithiothreitol), 0.1 mM Na3VO4, 5 mM MgCl2, 0.01% Tween 20. Assays were carried out in 384 well Alphaplates (Perkin Elmer). Incubations consisted of compound, 25 microM Adenosine-5′-triphosphate (ATP), and 0.2 nM NIK/MAP3K14. Incubations were initiated by addition of GST-tagged NIK/MAP3K14 enzyme, carried out for 1 h at 25° C. and terminated by addition of stop buffer containing anti-phospho-IKK Ser176/180 antibody. Protein A Acceptor and Glutathione-Donor beads were added before reading using an EnVision® Multilabel Plate Reader (Perkin Elmer). Signal obtained in the wells containing blank samples was subtracted from all other wells and IC50's were determined by fitting a sigmoidal curve to % inhibition of control versus Log10 compound concentration.
# LP-1 cells = experiment: Biological Assay C: antiproliferative activity on LP-1 cells (CellTiter-Glo); type: cell-based, human; conditions: 72 hr treatment, averaged values
# Procedure: (§1) Determination of Antiproliferative Activity on LP-1, L-363 and JJN-3 Cells
# (§2) All compounds tested were dissolved in DMSO and further dilutions were made in culture medium. Final DMSO concentration was 0.3% (v/v) in cell proliferation assays. Viability was assessed using CellTiter-Glo cell viability assay kit (Promega). The human LP-1, L-363 and JJN-3 cells (DSMZ) were cultured in RPMI 1640 medium supplemented with 2 mM L-glutamine, and 10% fetal calf serum (PAA). Cells were routinely kept as suspension cells at 37° C. in a humidified 5% CO2 atmosphere. Cells were passaged at a seeding density of 0.2×10^6/ml twice a week. Cells were seeded in black tissue culture treated 96-well plates (Perkin Elmer). Densities used for plating ranged from 2,000 to 6,000 cells per well in a total volume of 75 μl medium. After twenty four hours, drugs and/or solvents were added (25 μl) to a final volume of 100 μl. Following 72 hr of treatment plates were removed from the incubator and allowed to equilibrate to room temperature for approx 10 min. 100 μl CellTiter-Glo reagent was added to each well that was then covered (Perkin Elmer Topseal) and shaken on plate shaker for 10 min. Luminescence was measured on a HTS Topcount (Perkin Elmer). Within an experiment, the results for each treatment were the mean of 2 replicate wells. For initial screening purposes, compounds were tested using a 9 point dilution curve (serial 1:3 dilutions). For each experiment, controls (containing no drug) and a blank incubation (containing cells read at the time of compound addition) were run in parallel. The blank value was subtracted from all control and sample values. For each sample, the mean value for cell growth (in relative light units) was expressed as a percentage of the mean value for cell growth of the control.
# L-363 cells = experiment: Biological Assay C: antiproliferative activity on L-363 cells (CellTiter-Glo); type: cell-based, human; conditions: 72 hr treatment, averaged values
# Procedure: as §1, §2
# JJN-3 cells = experiment: Biological Assay C: antiproliferative activity on JJN-3 cells (CellTiter-Glo); type: cell-based, human; conditions: 72 hr treatment, averaged values
# Procedure: as §1, §2
# Sequence of Recombinant Human NF-kappaB-Inducing Kinase (NIK/MAP3K14) (Q99558 whole entry): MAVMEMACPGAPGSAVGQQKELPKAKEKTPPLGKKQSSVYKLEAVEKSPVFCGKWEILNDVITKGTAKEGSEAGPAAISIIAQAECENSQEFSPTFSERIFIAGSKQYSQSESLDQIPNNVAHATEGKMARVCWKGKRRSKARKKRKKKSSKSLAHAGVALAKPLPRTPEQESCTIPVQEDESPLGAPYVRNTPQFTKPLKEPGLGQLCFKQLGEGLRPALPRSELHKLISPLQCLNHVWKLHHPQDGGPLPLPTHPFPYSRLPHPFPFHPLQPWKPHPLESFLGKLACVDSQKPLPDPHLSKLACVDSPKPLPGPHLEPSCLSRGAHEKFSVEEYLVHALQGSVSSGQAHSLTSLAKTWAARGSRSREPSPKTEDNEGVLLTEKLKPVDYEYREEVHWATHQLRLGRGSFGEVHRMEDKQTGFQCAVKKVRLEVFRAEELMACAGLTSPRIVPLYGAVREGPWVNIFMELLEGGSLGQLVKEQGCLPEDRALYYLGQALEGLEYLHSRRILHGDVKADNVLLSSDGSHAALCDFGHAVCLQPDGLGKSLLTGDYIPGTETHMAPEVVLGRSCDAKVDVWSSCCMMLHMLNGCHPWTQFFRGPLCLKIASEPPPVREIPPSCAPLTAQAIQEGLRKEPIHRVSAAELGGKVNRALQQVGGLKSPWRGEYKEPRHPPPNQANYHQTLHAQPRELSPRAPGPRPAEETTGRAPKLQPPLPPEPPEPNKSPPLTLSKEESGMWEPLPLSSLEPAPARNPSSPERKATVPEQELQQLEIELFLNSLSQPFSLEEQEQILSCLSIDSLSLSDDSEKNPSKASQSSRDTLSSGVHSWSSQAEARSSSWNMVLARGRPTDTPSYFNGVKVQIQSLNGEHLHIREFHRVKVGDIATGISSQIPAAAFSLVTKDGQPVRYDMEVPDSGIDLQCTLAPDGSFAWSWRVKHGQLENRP
compound,measurement,setting,value
"COCCCn1cc(-c2nc(N)ncc2F)c2cc(C#CC(C)(O)C3CC3)ncc21 (single isomer, unassigned) [Compound 119]",IC50,[1],230 nM
same,EC50,LP-1 cells,2100 nM
same,EC50,L-363 cells,900 nM
same,EC50,JJN-3 cells,700 nM
"CC(O)(C#Cc1cc2c(-c3nc(N)ncc3F)cn(C3COC3)c2cn1)C1CC1 (single isomer, unassigned) [Compound 121]",IC50,[1],680 nM
same,EC50,LP-1 cells,3400 nM
same,EC50,L-363 cells,1300 nM
same,EC50,JJN-3 cells,1400 nM
"CC(O)(C#Cc1cc2c(-c3nc(N)ncc3F)cn(C3CN(C4CC4)C3)c2cn1)C1CC1 (single isomer, unassigned) [Compound 157]",IC50,[1],46 nM
same,EC50,"L-363 cells; Homo sapiens, L-363, 72 h",140 nM
same,EC50,"JJN-3 cells; Homo sapiens, JJN-3, 72 h",180 nM
CC(C)(O)C#Cc1cc2c(-c3nc(N)ncc3C#N)cn(CC3CCOCC3)c2cn1 [Compound 75],IC50,[1],35 nM
same,EC50,"LP-1 cells; Homo sapiens, LP-1, 72 h",> 10000 nM
same,EC50,"L-363 cells; Homo sapiens, L-363, 72 h",670 nM
same,EC50,"JJN-3 cells; Homo sapiens, JJN-3, 72 h",540 nM
CN1CCC(n2cc(-c3ccnc(N)n3)c3cc(C#CC(C)(C)O)ncc32)CC1 [Compound 77],IC50,[1],88 nM
same,EC50,"LP-1 cells; Homo sapiens, LP-1, 72 h",4000 nM
same,EC50,"L-363 cells; Homo sapiens, L-363, 72 h",320 nM
same,EC50,"JJN-3 cells; Homo sapiens, JJN-3, 72 h",570 nM
CC(C)N1CCC(n2cc(-c3ccnc(N)n3)c3cc(C#CC(C)(C)O)ncc32)CC1 [Compound 78],IC50,[1],130 nM
same,EC50,"LP-1 cells; Homo sapiens, LP-1, 72 h",2000 nM
same,EC50,"L-363 cells; Homo sapiens, L-363, 72 h",410 nM
same,EC50,"JJN-3 cells; Homo sapiens, JJN-3, 72 h",580 nM
CCN1CCC(n2cc(-c3ccnc(N)n3)c3cc(C#CC(C)(C)O)ncc32)CC1 [Compound 79],IC50,[1],47 nM
same,EC50,"LP-1 cells; Homo sapiens, LP-1, 72 h",2000 nM
same,EC50,"L-363 cells; Homo sapiens, L-363, 72 h",61 nM
same,EC50,"JJN-3 cells; Homo sapiens, JJN-3, 72 h",160 nM
CC(C)N1CC(n2cc(-c3ccnc(N)n3)c3cc(C#CC(C)(C)O)ncc32)C1 [Compound 80],IC50,[1],76 nM
same,EC50,"LP-1 cells; Homo sapiens, LP-1, 72 h",2500 nM
same,EC50,"L-363 cells; Homo sapiens, L-363, 72 h",160 nM
same,EC50,"JJN-3 cells; Homo sapiens, JJN-3, 72 h",310 nM
COCCCn1cc(-c2cc(C)nc(N)n2)c2cc(C#CC(C)(C)O)ncc21 [Compound 81],IC50,[1],100 nM
same,EC50,"LP-1 cells; Homo sapiens, LP-1, 72 h",28000 nM
same,EC50,"L-363 cells; Homo sapiens, L-363, 72 h",5900 nM
same,EC50,"JJN-3 cells; Homo sapiens, JJN-3, 72 h",5700 nM
Cc1cnc(N)nc1-c1cn(CC2CCOCC2)c2cnc(C#CC(C)(C)O)cc12 [Compound 82],IC50,[1],35 nM
same,EC50,"LP-1 cells; Homo sapiens, LP-1, 72 h",13000 nM
same,EC50,"L-363 cells; Homo sapiens, L-363, 72 h",890 nM
same,EC50,"JJN-3 cells; Homo sapiens, JJN-3, 72 h",1100 nM
COCCCn1cc(-c2nc(N)ncc2C)c2cc(C#CC(C)(C)O)ncc21 [Compound 83],IC50,[1],86 nM
same,EC50,"LP-1 cells; Homo sapiens, LP-1, 72 h",4700 nM
same,EC50,"L-363 cells; Homo sapiens, L-363, 72 h",550 nM
same,EC50,"JJN-3 cells; Homo sapiens, JJN-3, 72 h",670 nM
COCCCn1cc(-c2ccnc(N)n2)c2cc(C#CC(C)(C)O)nc(C)c21 [Compound 84],IC50,[1],68 nM
same,EC50,"LP-1 cells; Homo sapiens, LP-1, 72 h",250 nM
same,EC50,"L-363 cells; Homo sapiens, L-363, 72 h",22 nM
same,EC50,"JJN-3 cells; Homo sapiens, JJN-3, 72 h",67 nM
CCN1CCC(n2cc(-c3nc(N)ncc3F)c3cc(C#CC(C)(C)O)ncc32)CC1 [Compound 85],IC50,[1],33 nM
same,EC50,"LP-1 cells; Homo sapiens, LP-1, 72 h",190 nM
same,EC50,"L-363 cells; Homo sapiens, L-363, 72 h",15 nM
same,EC50,"JJN-3 cells; Homo sapiens, JJN-3, 72 h",44 nM
COCCCn1cc(-c2nc(N)ncc2F)c2cc(C#CC(C)(C)O)nc(C)c21 [Compound 86],IC50,[1],11 nM
same,EC50,"LP-1 cells; Homo sapiens, LP-1, 72 h",16 nM
same,EC50,"L-363 cells; Homo sapiens, L-363, 72 h",5.9 nM
same,EC50,"JJN-3 cells; Homo sapiens, JJN-3, 72 h",9.2 nM
COCCCn1cc(-c2nc(N)ncc2F)c2cc(C#CC3(O)CCCC3)ncc21 [Compound 87],IC50,[1],9 nM
same,EC50,"LP-1 cells; Homo sapiens, LP-1, 72 h",1200 nM
same,EC50,"L-363 cells; Homo sapiens, L-363, 72 h",450 nM
same,EC50,"JJN-3 cells; Homo sapiens, JJN-3, 72 h",530 nM
COCCCn1cc(-c2nc(N)ncc2F)c2cc(C#CC(C)(O)C3CC3)ncc21 (stereo not shown) [Compound 88],IC50,[1],15 nM
same,EC50,"LP-1 cells; Homo sapiens, LP-1, 72 h",220 nM
same,EC50,"L-363 cells; Homo sapiens, L-363, 72 h",110 nM
same,EC50,"JJN-3 cells; Homo sapiens, JJN-3, 72 h",130 nM
CNc1ncc(F)c(-c2cn(CCCOC)c3cnc(C#CC4(O)CCCC4)cc23)n1 [Compound 89],IC50,[1],130 nM
same,EC50,"LP-1 cells; Homo sapiens, LP-1, 72 h",7600 nM
same,EC50,"L-363 cells; Homo sapiens, L-363, 72 h",4200 nM
same,EC50,"JJN-3 cells; Homo sapiens, JJN-3, 72 h",3700 nM
CNc1ncc(F)c(-c2cn(CCCOC)c3cnc(C#CC(C)(C)O)cc23)n1 [Compound 90],IC50,[1],44 nM
same,EC50,"LP-1 cells; Homo sapiens, LP-1, 72 h",740 nM
same,EC50,"L-363 cells; Homo sapiens, L-363, 72 h",510 nM
same,EC50,"JJN-3 cells; Homo sapiens, JJN-3, 72 h",720 nM
COCCCn1cc(-c2nc(N)ncc2F)c2cc(C#CC(C)(O)c3cc(C)on3)ncc21 (stereo not shown) [Compound 91],IC50,[1],12 nM
same,EC50,"LP-1 cells; Homo sapiens, LP-1, 72 h",4900 nM
same,EC50,"L-363 cells; Homo sapiens, L-363, 72 h",470 nM
same,EC50,"JJN-3 cells; Homo sapiens, JJN-3, 72 h",1100 nM
COCCCn1cc(-c2nc(N)ncc2F)c2cc(C#CC(C)(C)O)nc(Cl)c21 [Compound 92],IC50,[1],47 nM
same,EC50,"LP-1 cells; Homo sapiens, LP-1, 72 h",86 nM
same,EC50,"L-363 cells; Homo sapiens, L-363, 72 h",32 nM
same,EC50,"JJN-3 cells; Homo sapiens, JJN-3, 72 h",54 nM
